According to US20250186627A1, “RADIOLABELED COMPOUNDS TARGETING THE PROSTATE-SPECIFIC MEMBRANE ANTIGEN” (PROVINCIAL HEALTH SERVICES AUTHORITY, priority 2022, published 2025):
Each block holds one compound with its values, some of them ahead of it. *1 amine or outer side, *2 acyl side, *3 side chain or, on linkers, in order; H or OH if unused. Where a SMILES comes first, the peptide text is derived from it. [ ]: non-standard residue; d: D form. The star is where a group is joined. ξ: configuration not given here. Butanoyl(4-(4-NO2Ph)) = O=C(CCCc1ccc([N+](=O)[O-])cc1)*; DOTA = O=C(O)CN1CCN(CC(=O)O)CCN(CC(=O)*)CCN(CC(=O)O)CC1; ξAla(9-anthryl) = NC(Cc1c2ccccc2cc2ccccc12)C(=O)O; X2 = O=C(NC(CCCCN*)C(=O)O)NC(CC(F)C(=O)O)C(=O)O; X1 = O=C(C1CCC(CN[*:1])CC1)[*:2]; ξK = NCCCCC(N)C(=O)O

Tested on: NRG-mice bearing LNCaP tumors
Experiment: Biodistribution (and PET/SPECT imaging) in NRG-mice bearing LNCaP tumors
Assay type: in vivo
Details: Avg
Method: LNCaP cell line was obtained from ATCC (LNCaP clone FGC, CRL-1740). It was established from a metastatic site of left supraclavicular lymph node of human prostatic adenocarcinoma. Cells were cultured in PRMI 1640 medium supplemented with 10% FBS, penicillin (100 U/mL) and streptomycin (100 μg/mL) at 37° C. in a humidified incubator containing 5% CO2. Cells grown to 80-90% confluence were then washed with sterile phosphate-buffered saline (1×PBS pH 7.4) and trypsinization. The collected cells number was counted with a Hausser Scientific (Horsham, PA) Hemacytometer. Approximately 10 million LNCaP cells were inoculated into the left dorsal flank of immunocomprised NRG mice. The tumours were allowed to grow for 4-6 weeks and used for imaging and biodistribution studies when a volume of 200-600 mm^3 was reached.
PET imaging experiments were conducted using Siemens Inveon micro PET/CT scanner. SPECT imaging experiments were conducted using an MILabs micro SPECT/CT scanner. Each tumor bearing mouse was injected 4-6 MBq of ^68Ga or 18.5 MBq of ^177Lu labeled tracer through the tail vein under anesthesia (2% isoflurane in oxygen). The mice were allowed to recover and roam freely in their cage. At pre-defined time point, the mice were sedated again with 2% isoflurane in oxygen inhalation and positioned in the scanner. A 10-min CT scan was conducted first for localization and attenuation correction after segmentation for reconstructing the PET or SPECT images. Then, a 10-min static PET imaging or a one hour (30 min×2 frames) of static SPECT scan was performed to determined uptake in tumor and other organs. The mice were kept warm by a heating pad during acquisition.
For biodistribution studies, the mice were injected with the radiotracer as described above. The mice were anesthetized with 2% isoflurane inhalation, and euthanized by CO2 inhalation. Blood was withdrawn immediately from the heart, and the organs/tissues of interest were collected. The collected organs/tissues were weighed and counted using a Perkin Elmer (Waltham, MA) Wizard2 2480 gamma counter. The uptake in each organ/tissue was normalized to the injected dose (radioactivity) using a standard curve, and expressed as the percentage of the injected dose per gram of tissue (% ID/g).

Biodistribution: Adrenal gland (3 h p.i.): 2.79 % ID/g
Biodistribution: Blood (3 h p.i.): 11.22 % ID/g
Biodistribution: Bone (3 h p.i.): 1.03 % ID/g
Biodistribution: Brain (3 h p.i.): 0.18 % ID/g
Biodistribution: Fat (3 h p.i.): 1.91 % ID/g
Biodistribution: Heart (3 h p.i.): 2.52 % ID/g
Biodistribution: Intestine (3 h p.i.): 0.98 % ID/g
Biodistribution: LNCaP tumor (3 h p.i.): 50.23 % ID/g
Biodistribution: Lacrimal gland (3 h p.i.): 0.39 % ID/g
Biodistribution: Liver (3 h p.i.): 2.18 % ID/g
Biodistribution: Lungs (3 h p.i.): 5.22 % ID/g
Biodistribution: Muscle (3 h p.i.): 0.87 % ID/g
Biodistribution: Pancreas (3 h p.i.): 1.07 % ID/g
Biodistribution: Salivary gland (3 h p.i.): 1.92 % ID/g
Biodistribution: Seminal gland (3 h p.i.): 0.59 % ID/g
Biodistribution: Spleen (3 h p.i.): 1.53 % ID/g
Biodistribution: Stomach (3 h p.i.): 0.58 % ID/g
Biodistribution: Testes (3 h p.i.): 2.55 % ID/g
Biodistribution: Thyroid (3 h p.i.): 2.44 % ID/g
Biodistribution: Urine (3 h p.i.): 180.95 % ID/g
Biodistribution: kidney (3 h p.i.): 10.42 % ID/g
Biodistribution: Adrenal gland (24 h p.i.): 0.54 % ID/g
Biodistribution: Blood (24 h p.i.): 0.70 % ID/g
Biodistribution: Bone (24 h p.i.): 0.18 % ID/g
Biodistribution: Brain (24 h p.i.): 0.03 % ID/g
Biodistribution: Fat (24 h p.i.): 0.33 % ID/g
Biodistribution: Heart (24 h p.i.): 0.37 % ID/g
Biodistribution: Intestine (24 h p.i.): 0.23 % ID/g
Biodistribution: LNCaP tumor (24 h p.i.): 55.39 % ID/g
Biodistribution: Lacrimal gland (24 h p.i.): 0.00 % ID/g
Biodistribution: Liver (24 h p.i.): 0.48 % ID/g
Biodistribution: Lungs (24 h p.i.): 0.65 % ID/g
Biodistribution: Muscle (24 h p.i.): 0.11 % ID/g
Biodistribution: Pancreas (24 h p.i.): 0.17 % ID/g
Biodistribution: Salivary gland (24 h p.i.): 0.56 % ID/g
Biodistribution: Seminal gland (24 h p.i.): 0.23 % ID/g
Biodistribution: Spleen (24 h p.i.): 0.37 % ID/g
Biodistribution: Stomach (24 h p.i.): 0.73 % ID/g
Biodistribution: Testes (24 h p.i.): 0.37 % ID/g
Biodistribution: Thyroid (24 h p.i.): 0.52 % ID/g
Biodistribution: Urine (24 h p.i.): 8.42 % ID/g
Biodistribution: kidney (24 h p.i.): 4.02 % ID/g
Biodistribution: Adrenal gland (72 h p.i.): 0.53 % ID/g
Biodistribution: Blood (72 h p.i.): 0.13 % ID/g
Biodistribution: Bone (72 h p.i.): 0.05 % ID/g
Biodistribution: Brain (72 h p.i.): 0.01 % ID/g
Biodistribution: Fat (72 h p.i.): 0.16 % ID/g
Biodistribution: Heart (72 h p.i.): 0.18 % ID/g
Biodistribution: Intestine (72 h p.i.): 0.08 % ID/g
Biodistribution: LNCaP tumor (72 h p.i.): 45.10 % ID/g
Biodistribution: Lacrimal gland (72 h p.i.): 0.00 % ID/g
Biodistribution: Liver (72 h p.i.): 0.29 % ID/g
Biodistribution: Lungs (72 h p.i.): 0.41 % ID/g
Biodistribution: Muscle (72 h p.i.): 0.04 % ID/g
Biodistribution: Pancreas (72 h p.i.): 0.09 % ID/g
Biodistribution: Salivary gland (72 h p.i.): 0.27 % ID/g
Biodistribution: Seminal gland (72 h p.i.): 0.06 % ID/g
Biodistribution: Spleen (72 h p.i.): 0.45 % ID/g
Biodistribution: Stomach (72 h p.i.): 0.15 % ID/g
Biodistribution: Testes (72 h p.i.): 0.39 % ID/g
Biodistribution: Thyroid (72 h p.i.): 0.37 % ID/g
Biodistribution: Urine (72 h p.i.): 1.12 % ID/g
Biodistribution: kidney (72 h p.i.): 1.84 % ID/g
Biodistribution: Adrenal gland (144 h p.i.): 0.31 % ID/g
Biodistribution: Blood (144 h p.i.): 0.04 % ID/g
Biodistribution: Bone (144 h p.i.): 0.04 % ID/g
Biodistribution: Brain (144 h p.i.): 0.01 % ID/g
Biodistribution: Fat (144 h p.i.): 0.11 % ID/g
Biodistribution: Heart (144 h p.i.): 0.13 % ID/g
Biodistribution: Intestine (144 h p.i.): 0.03 % ID/g
Biodistribution: LNCaP tumor (144 h p.i.): 40.77 % ID/g
Biodistribution: Lacrimal gland (144 h p.i.): 0.00 % ID/g
Biodistribution: Liver (144 h p.i.): 0.19 % ID/g
Biodistribution: Lungs (144 h p.i.): 0.93 % ID/g
Biodistribution: Muscle (144 h p.i.): 0.03 % ID/g
Biodistribution: Pancreas (144 h p.i.): 0.06 % ID/g
Biodistribution: Salivary gland (144 h p.i.): 0.34 % ID/g
Biodistribution: Seminal gland (144 h p.i.): 0.03 % ID/g
Biodistribution: Spleen (144 h p.i.): 0.51 % ID/g
Biodistribution: Stomach (144 h p.i.): 0.03 % ID/g
Biodistribution: Testes (144 h p.i.): 0.33 % ID/g
Biodistribution: Thyroid (144 h p.i.): 0.28 % ID/g
Biodistribution: Urine (144 h p.i.): 0.84 % ID/g
Biodistribution: kidney (144 h p.i.): 1.10 % ID/g
Biodistribution: Adrenal gland (240 h p.i.): 0.11 % ID/g
Biodistribution: Blood (240 h p.i.): 0.01 % ID/g
Biodistribution: Bone (240 h p.i.): 0.00 % ID/g
Biodistribution: Brain (240 h p.i.): 0.00 % ID/g
Biodistribution: Fat (240 h p.i.): 0.06 % ID/g
Biodistribution: Heart (240 h p.i.): 0.05 % ID/g
Biodistribution: Intestine (240 h p.i.): 0.02 % ID/g
Biodistribution: LNCaP tumor (240 h p.i.): 25.30 % ID/g
Biodistribution: Lacrimal gland (240 h p.i.): 0.00 % ID/g
Biodistribution: Liver (240 h p.i.): 0.15 % ID/g
Biodistribution: Lungs (240 h p.i.): 0.09 % ID/g
Biodistribution: Muscle (240 h p.i.): 0.01 % ID/g
Biodistribution: Pancreas (240 h p.i.): 0.03 % ID/g
Biodistribution: Salivary gland (240 h p.i.): 0.10 % ID/g
Biodistribution: Seminal gland (240 h p.i.): 0.01 % ID/g
Biodistribution: Spleen (240 h p.i.): 0.46 % ID/g
Biodistribution: Stomach (240 h p.i.): 0.02 % ID/g
Biodistribution: Testes (240 h p.i.): 0.16 % ID/g
Biodistribution: Thyroid (240 h p.i.): 0.12 % ID/g
Biodistribution: Urine (240 h p.i.): 0.37 % ID/g
Biodistribution: kidney (240 h p.i.): 0.52 % ID/g
Structure (SMILES): COc1ccc(CCCC(=O)NCC(=O)NC(CCCCNC(=O)CN2CCN(CC(=O)[O-])CCN(CC(=O)[O-])CCN(CC(=O)[O-])CC2)CC(=O)NCC2CCC(C(=O)NC(Cc3c4ccccc4cc4ccccc34)C(=O)NCCCCC(NC(=O)NC(CC(F)C(=O)O)C(=O)O)C(=O)O)CC2)cc1.[177Lu+3] (stereo not shown) [^177Lu-CCZ02019]

Biodistribution: Adrenal gland (1 h p.i.): 5.96 % ID/g
Biodistribution: Blood (1 h p.i.): 19.40 % ID/g
Biodistribution: Bone (1 h p.i.): 1.01 % ID/g
Biodistribution: Brain (1 h p.i.): 0.30 % ID/g
Biodistribution: Fat (1 h p.i.): 2.74 % ID/g
Biodistribution: Heart (1 h p.i.): 4.13 % ID/g
Biodistribution: Intestine (1 h p.i.): 1.93 % ID/g
Biodistribution: LNCaP tumor (1 h p.i.): 9.19 % ID/g
Biodistribution: Liver (1 h p.i.): 4.07 % ID/g
Biodistribution: Lungs (1 h p.i.): 8.79 % ID/g
Biodistribution: Muscle (1 h p.i.): 1.48 % ID/g
Biodistribution: Pancreas (1 h p.i.): 1.89 % ID/g
Biodistribution: Salivary gland (1 h p.i.): 3.24 % ID/g
Biodistribution: Seminal gland (1 h p.i.): 2.55 % ID/g
Biodistribution: Spleen (1 h p.i.): 1.90 % ID/g
Biodistribution: Stomach (1 h p.i.): 0.59 % ID/g
Biodistribution: Testes (1 h p.i.): 2.65 % ID/g
Biodistribution: Thyroid (1 h p.i.): 4.11 % ID/g
Biodistribution: Urine (1 h p.i.): 104.40 % ID/g
Biodistribution: kidney (1 h p.i.): 14.01 % ID/g
Biodistribution: Adrenal gland (3 h p.i.): 4.26 % ID/g
Biodistribution: Blood (3 h p.i.): 13.83 % ID/g
Biodistribution: Bone (3 h p.i.): 1.27 % ID/g
Biodistribution: Brain (3 h p.i.): 0.22 % ID/g
Biodistribution: Fat (3 h p.i.): 1.79 % ID/g
Biodistribution: Heart (3 h p.i.): 2.86 % ID/g
Biodistribution: Intestine (3 h p.i.): 1.12 % ID/g
Biodistribution: LNCaP tumor (3 h p.i.): 18.79 % ID/g
Biodistribution: Liver (3 h p.i.): 3.21 % ID/g
Biodistribution: Lungs (3 h p.i.): 5.21 % ID/g
Biodistribution: Muscle (3 h p.i.): 0.95 % ID/g
Biodistribution: Pancreas (3 h p.i.): 1.13 % ID/g
Biodistribution: Salivary gland (3 h p.i.): 2.47 % ID/g
Biodistribution: Seminal gland (3 h p.i.): 1.83 % ID/g
Biodistribution: Spleen (3 h p.i.): 1.17 % ID/g
Biodistribution: Stomach (3 h p.i.): 0.57 % ID/g
Biodistribution: Testes (3 h p.i.): 2.80 % ID/g
Biodistribution: Thyroid (3 h p.i.): 2.41 % ID/g
Biodistribution: Urine (3 h p.i.): 101.55 % ID/g
Biodistribution: kidney (3 h p.i.): 9.90 % ID/g
Structure (SMILES): O=C([O-])CN1CCN(CC(=O)[O-])CCN(CC(=O)NCCCCC(NC(=O)CNC(=O)CCCc2ccc([N+](=O)[O-])cc2)C(=O)NCC(=O)NCC2CCC(C(=O)NC(Cc3c4ccccc4cc4ccccc34)C(=O)NCCCCC(NC(=O)NC(CC(F)C(=O)O)C(=O)O)C(=O)O)CC2)CCN(CC(=O)[O-])CC1.[68Ga+3] (stereo not shown) [^68Ga-CCZ02025] ({Butanoyl(4-(4-NO2Ph))}-G[ξK](DOTA)G[X1][ξAla(9-anthryl)]-X2)
